Experimental data taken from patent US12593841B2, “Antimicrobial mixture containing 4-(3-ethoxy-4-hydroxyphenyl)butan-2-one and an arginate compound, and cosmetic composition containing same” (L'OREAL, priority 2017, dated 2026).

What was measured:
Assay type in all cases: cell-based
[1] = tested on: Pseudomonas aeruginosa ATCC 9027; test: MIC / synergy (FIC index) microplate growth test on Pseudomonas aeruginosa
Excerpt: (§1) As regards the combinations tested, MICa with b and MICb with a are the respective concentrations of A and of B in the combinations which make it possible to obtain a microbial growth percentage of less than or equal to 25%.
(§2) When the FIC index value is less than or equal to 1, it is considered that the combination of test compounds has a synergistic effect.
The microbial strain Pseudomonas aeruginosa ATCC 9027 and a double-concentration nutrient broth liquid culture medium were used.
(§3) A 96-well microplate at an incubation temperature of 32.5° C. is used.
(§4) The incubation time of the microplate for the three abovementioned strains is from 18 to 24 hours aerobically.
(§5) A 10% (weight/volume) stock solution was prepared by mixing 1 g of compound in 9 ml of aqueous 1‰ agar solution. Successive dilutions were made with the 1‰ agar solution. • Tests of compounds A and B alone
(§6) 50 μL of each of the daughter solutions obtained containing compound A or B are added to the microplate wells. 100 μl of Sabouraud liquid nutrient broth inoculated at double concentration with the strain Candida albicans and 50 μl of aqueous 1‰0 agar solution are also added thereto. • Tests of compounds A and B as a mixture
(§7) 50 μL of each of the daughter solutions obtained containing compound A and 50 μL of each of the daughter solutions obtained containing compound B are added to the microplate wells. 100 μl of Sabouraud liquid nutrient broth inoculated at double concentration with the strain Candida albicans are also added thereto.
(§8) A positive microbial growth control was also prepared. The positive microbial growth control corresponds to a mixture of 100 μl of aqueous 1‰ agar solution with 100 μl of Sabouraud liquid nutrient broth inoculated at double concentration with the strain Candida albicans in the absence of compounds A and B.
(§9) An absorbance control was performed in parallel on compounds A and B alone. This control corresponds to 100 μL of double concentration sterile Sabouraud liquid nutrient broth +100 μl of double concentration compound A or B.
(§10) In the three cases (absorbance control, growth control and test), the final volume present in each of the microplate wells is 200 μL.
(§11) The test as described above (tests, absorbance control and growth control) was performed again to test the combination A+B on the strains Staphylococcus aureus and Pseudomonas aeruginosa.

[2] = tested on: Candida albicans ATCC 10231; test: MIC / synergy (FIC index) microplate growth test on Candida albicans
Excerpt: as §1, §2
The microbial strain Candida albicans ATCC 10231 and a double-concentration Sabouraud broth liquid culture medium were used.
as §3, §4, §5, §6, §7, §8, §9, §10
In the two cases (test and control), the inoculum represents the concentration of the strain Candida albicans present in the final volume of the wells (200 μL) and is between 2 and 6×10^5 cfu/ml of Candida albicans.

[3] = tested on: Staphylococcus aureus ATCC 6538; test: MIC / synergy (FIC index) microplate growth test on Staphylococcus aureus
Excerpt: as §1, §2
The microbial strain Staphylococcus aureus ATCC 6538 and a double-concentration nutrient broth liquid culture medium were used.
as §3, §4, §5, §6, §7, §8, §9, §10, §11

[4] = weight % of active material, growth <= 25%

CCOc1cc(CCC(C)=O)ccc1O [A, 4-(3-ethoxy-4-hydroxyphenyl)butan-2-one]
microbial growth percentage ([1]; 0.125 weight % A alone (0 B)): 99%
microbial growth percentage ([1]; 0.25 weight % A alone (0 B)): 46%
microbial growth percentage ([1]; 0.5 weight % A alone (0 B)): 37%
microbial growth percentage ([1]; 1 weight % A alone (0 B)): 41%
microbial growth percentage ([1]; 2 weight % A alone (0 B)): 19%
% MIC of A alone [1, 4]: 2%
microbial growth percentage ([2]; 0.025 weight % A alone (0 B)): 80%
microbial growth percentage ([2]; 0.05 weight % A alone (0 B)): 62%
microbial growth percentage ([2]; 0.1 weight % A alone (0 B)): 24%
microbial growth percentage ([2]; 0.2 weight % A alone (0 B)): 3%
% MIC of A alone [2, 4]: 0.2%
microbial growth percentage ([3]; 0.125 weight % A alone (0 B)): 58%
microbial growth percentage ([3]; 0.25 weight % A alone (0 B)): 60%
microbial growth percentage ([3]; 0.5 weight % A alone (0 B)): 0%
% MIC of A alone [3, 4]: 0.5%

CCCCCCCCCCCC(=O)N[C@@H](CCCNC(=N)N)C(=O)OCC.Cl [B, ethyl N-lauroyl arginate hydrochloride, reference compound]
microbial growth percentage ([1]; 0.0025 weight % B alone (0 A)): 37%
microbial growth percentage ([1]; 0.005 weight % B alone (0 A)): 10%
% MIC of B alone [1, 4]: 0.005%
microbial growth percentage ([2]; 0.0025 weight % B alone (0 A)): 28%
microbial growth percentage ([2]; 0.005 weight % B alone (0 A)): 9%
% MIC of B alone [2, 4]: 0.005%
microbial growth percentage ([3]; 0.00025 weight % B alone (0 A)): 71%
microbial growth percentage ([3]; 0.0005 weight % B alone (0 A)): 0%
% MIC of B alone [3, 4]: 0.0005%
